Measurements taken from paper PMC12199272, “Biochemical dissection of a fungal highly reducing polyketide synthase condensing region reveals basis for acyl group selection” (Chemical Science, 2025).

Experiments:
SimG AT domain (LD-AT) [1] = target: T1, SimG AT domain (LD-AT) (Tolypocladium inflatum, UniProt Z9QNP6F7M4); experiment: intact protein MS, acyl-enzyme formation; type: biochemical; conditions: covalent; active site Ser706
T1 construct: excised AT domain with flanking linker domain (LD), active-site Ser706; recombinant; borders only in ESI
T1 sequence (Z9QNP6F7M4 1-440): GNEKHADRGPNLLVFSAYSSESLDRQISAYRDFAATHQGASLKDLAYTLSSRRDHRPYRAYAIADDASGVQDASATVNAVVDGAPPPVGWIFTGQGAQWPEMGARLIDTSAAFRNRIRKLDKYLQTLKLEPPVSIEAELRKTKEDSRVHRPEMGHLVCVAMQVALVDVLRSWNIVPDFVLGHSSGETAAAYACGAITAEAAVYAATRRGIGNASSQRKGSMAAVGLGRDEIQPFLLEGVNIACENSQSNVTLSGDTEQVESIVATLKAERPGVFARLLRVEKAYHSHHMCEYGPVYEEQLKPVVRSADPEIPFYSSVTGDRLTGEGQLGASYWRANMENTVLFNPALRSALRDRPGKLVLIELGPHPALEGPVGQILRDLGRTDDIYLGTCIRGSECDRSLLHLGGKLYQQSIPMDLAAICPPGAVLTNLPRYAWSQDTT

SimG AT domain (LD-AT) [2] = target: T1, SimG AT domain (LD-AT); experiment: intact protein MS, acyl-enzyme formation; type: biochemical; conditions: covalent; active site Ser706; excess acyl-CoA; no ACP

Compound	% acylation of AT domain (SimG AT domain (LD-AT) [1])	% loading of AT domain (SimG AT domain (LD-AT) [2]) [%]
CCCC(=O)SCCNC(=O)CCNC(=O)[C@H](O)C(C)(C)COP(=O)(O)OP(=O)(O)OC[C@H]1O[C@@H](n2cnc3c(N)ncnc32)[C@H](O)[C@@H]1OP(=O)(O)O [butyryl-CoA]	good levels of AT transacylation were observed for C3–C10 substrates	
CC(=O)SCCNC(=O)CCNC(=O)[C@H](O)C(C)(C)COP(=O)(O)OP(=O)(O)OC[C@H]1O[C@@H](n2cnc3c(N)ncnc32)[C@H](O)[C@@H]1OP(=O)(O)O [acetyl-CoA]		35.3 ± 0.9
CCC(=O)SCCNC(=O)CCNC(=O)[C@H](O)C(C)(C)COP(=O)(O)OP(=O)(O)OC[C@H]1O[C@@H](n2cnc3c(N)ncnc32)[C@H](O)[C@@H]1OP(=O)(O)O [propionyl-CoA]	good levels of AT transacylation were observed for C3–C10 substrates	
CC(C(=O)O)C(=O)SCCNC(=O)CCNC(=O)[C@H](O)C(C)(C)COP(=O)(O)OP(=O)(O)OC[C@H]1O[C@@H](n2cnc3c(N)ncnc32)[C@H](O)[C@@H]1OP(=O)(O)O (some centres unmarked) [methylmalonyl-CoA]	methylmalonyl-CoA was able to acylate the AT domain	
CCCCCC(=O)SCCNC(=O)CCNC(=O)[C@H](O)C(C)(C)COP(=O)(O)OP(=O)(O)OC[C@H]1O[C@@H](n2cnc3c(N)ncnc32)[C@H](O)[C@@H]1OP(=O)(O)O [hexanoyl-CoA]	good levels of AT transacylation were observed for C3–C10 substrates	
CCCCCCCCCC(=O)SCCNC(=O)CCNC(=O)[C@H](O)C(C)(C)COP(=O)(O)OP(=O)(O)OC[C@H]1O[C@@H](n2cnc3c(N)ncnc32)[C@H](O)[C@@H]1OP(=O)(O)O [decanoyl-CoA]	good levels of AT transacylation were observed for C3–C10 substrates	
CCCCCCCC(=O)SCCNC(=O)CCNC(=O)[C@H](O)C(C)(C)COP(=O)(O)OP(=O)(O)OC[C@H]1O[C@@H](n2cnc3c(N)ncnc32)[C@H](O)[C@@H]1OP(=O)(O)O [octanoyl-CoA]	good levels of AT transacylation were observed for C3–C10 substrates	
CC(C)(COP(=O)(O)OP(=O)(O)OC[C@H]1O[C@@H](n2cnc3c(N)ncnc32)[C@H](O)[C@@H]1OP(=O)(O)O)[C@@H](O)C(=O)NCCC(=O)NCCSC(=O)CC(=O)O [malonyl-CoA]		64.5 ± 1.4
